The test system of data set [1] is C57BL/6J mice. The data set is described as follows: Biochemical analysis of serum in dexamethasone-induced muscular atrophy mice. In kind it is in vivo. To be noted: oxymetholone 50 mg/kg oral 8 weeks, DEX mice. On the procedure: (§1) 7-week-old male C57BL/6J mice purchased from OrientBio were used as experimental animals. The environment of an animal breeding room was controlled at temperature of 21±1° C. with relative humidity of 40˜60% and light/dark cycles of 12 hours/day, and feed and drinking water were allowed to be consumed freely. This test was approved by the Institutional Animal Care and Use Committee in Kookmin University (KMU-2023-05) and carried out in accordance with the standard operating instructions. […] Feed ingestion amount and body weight were measured once every two weeks.
After sacrificing the mice, blood was drawn from the heart and immediately centrifuged (3,000×g, 10 min, 4° C.) to separate the plasma. Creatine phosphokinase (CPK), lactate dehydrogenase (LDH), aspartate aminotransferase (AST), alanine aminotransferase (ALT), and blood urea nitrogen (BUN) were measured using a chemical analyzer (Fuji DRI-CHEM 3500i, Fuji Photo Film, Ltd., Tokyo, Japan).

For another data set, the system named is intestinal microflora. As to the kind of experiment: Intestinal microflora analysis in animal model (shotgun metagenome sequencing). The data set is classed as in vivo, mice. Particulars: genus level, compared to the DEX group. On the procedure: as §1
To identify the effect of the sample on the intestinal microbiota of the animal model, the appendix was removed after animal sacrifice, DNA was extracted, and analysis was performed using Shotgun metagenome sequencing. The extracted DNA was subjected to adapter ligation using the Truseq Nano DNA prep kit for sequencing, and then 8 cycles of PCR were performed to create a library. […] Using Trimmomatic v0.39 (AM Bolger, M Lohse, B Usadel, 2014) for raw reads, removal of low-quality reads and adapters was followed, and in order to eliminate PhiX sequences added during sequencing, trimmed reads were aligned to the PhiX reference genome (NC_001422.1) using BWA v0.7.17-r1188 (Li, Heng, 2013) and then removed with SAMtools v1.15.1 (Li, Heng, et al., 2009). […]

In data set [2] the test system is C57BL/6J mice. The data set is described as follows: Body weight and body composition (DEXA) in dexamethasone-induced muscular atrophy mice. The data set is classed as in vivo. To be noted: week 7, oral; KLP-KM2 900 and 1800 mg/kg, OXM 50 mg/kg; vs DEX group. Here is the method: as §1
Dual energy X-ray absorptiometry (DEXA; Medikors, Seongnam, Korea) was used at week 7 before the sacrifice of experimental animals to measure the body composition of mice, followed by analysis on the changes in muscle mass relative to the body weight.

The structures appear in SMILES notation. Marks after values point to notes of the source that are not given here.

For `C[C@]12C/C(=C/O)C(=O)C[C@@H]1CC[C@@H]1[C@@H]2CC[C@@]2(C)[C@H]1CC[C@]2(C)O` [OXM, oxymetholone], in the data set with C57BL/6J mice [1], the ALT was 43.75 ± 7.96 ^a U/L, the AST is reported as 58.88 ± 11.73 ^a U/L, the BUN was 24.74 ± 1.47 ^a mg/dL and the CPK was 99.13 ± 35.13 ^b U/L. In the data set on C57BL/6J mice [1], the LDH is given as 211.38 ± 46.99 ^b U/L. Further, the “proportion of Akkermansia” value in the data set on intestinal microflora is “significantly reduced”. Besides, the “muscle mass to the total body weight (DEXA)” value with C57BL/6J mice [2] is given as “relatively significant increase compared to the DEX group”.
